Data taken from patent US9963467B2, “Boronic acid derivatives and therapeutic uses thereof” (Rempex Pharmaceuticals, Inc., priority 2014, dated 2018).

Tests used:
KP1009 (CTX-M-15) [1] = test: Tigemonam potentiation (MPC@4), KP1009; type: cell-based; details: for TIG MPC4 CTX-M-15 KP1009: BLI with tigemonam at 4 μg/mL
ec308 (SHV-5) [2] = test: Aztreonam potentiation (MPC@4), ec308; type: cell-based; details: BLI with aztreonam at 4 μg/mL
KP1010 (SHV-12) [3] = test: Aztreonam potentiation (MPC@4), KP1010; type: cell-based
ECL1002 [4] = test: Aztreonam potentiation (MPC@4), ECL1002; type: cell-based; details: BLI with aztreonam at 4 μg/mL
KP1004 (KPC-2) = test: Biapenem potentiation (MPC@1), KP1004; details: BLI with biapenem at 1 μg/mL
ec302 (TEM-10) [5] = test: Tigemonam potentiation (MPC@4), ec302; type: cell-based
ec308 (SHV-5) [6] = test: Tigemonam potentiation (MPC@4), ec308; type: cell-based
KP1005 (CTX-M-14) [7] = test: Aztreonam potentiation (MPC@4), KP1005; type: cell-based; details: BLI with aztreonam at 4 μg/mL
ec302 (TEM-10) [8] = test: Aztreonam potentiation (MPC@4), ec302; type: cell-based; details: BLI with aztreonam at 4 μg/mL
KP1009 (CTX-M-15) [9] = test: organism not typed; type: cell-based
KP1005 (CTX-M-14) [10] = test: Tigemonam potentiation (MPC@4), KP1005; type: cell-based; details: for TIG MPC4 CTX-M-14 KP1005: BLI with tigemonam at 4 μg/mL
EC1010 (CMY-6) [11] = test: organism not typed; type: cell-based
KP1086 (OXA-48) = test: Biapenem potentiation (MPC@1), KP1086; details: BLI with biapenem at 1 μg/mL
PAM1032/KPC-2 = test: Biapenem potentiation MPC64, PAM1032/KPC-2 (efflux proficient); type: cell-based, Pseudomonas aeruginosa; details: BLI to decrease MIC of biapenem 64-fold; MexAB-OprM overexpressed
Protocol: (§1) Efflux of BLIs from Pseudomonas aeruginosa by the MexAB-OprM efflux pump was also evaluated. […] Due to expression of KPC-2 both strains became resistant to biapenem. […] Potency of BLIs to potentiate biapenem in these strains was determined. […] The ratio of MPC64 values for each BLI in PAM1032/KPC-2 (efflux proficient) and PAM1154/KPC-2 (efflux deficient) was determined to generate the Efflux Index (EI).

KP1010 (SHV-12) [12] = test: Tigemonam potentiation (MPC@4), KP1010; type: cell-based
OXA-48 = OXA-48 (Klebsiella pneumoniae, UniProt Q6XEC0); test: Ki, nitrocefin cleavage by purified enzyme, OXA-48; type: biochemical; details: nitrocefin reporter substrate; read-out: Ki (OXA-48, NCF)
In short: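 Purified enzyme was preincubated with a range of inhibitor concentrations in reaction buffer for 10 min at room temperature. Nitrocefin was then added and its cleavage followed at 490 nm every 10 sec for 10 min.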

ECL1002 [13] = test: Tigemonam potentiation (MPC@4), ECL1002; type: cell-based; details: for TIG MPC4 ECL1002: BLI with tigemonam at 4 μg/mL
PAM1154/KPC-2 = test: Biapenem potentiation MPC64, PAM1154/KPC-2 (efflux deficient); type: cell-based, Pseudomonas aeruginosa; details: BLI to decrease MIC of biapenem 64-fold; lacking MexAB-OprM
Protocol: as §1

[14] = Intravenous pharmacokinetics; type: in vivo; details: rat, plasma; rats, 20 mg/kg, intravenous infusion over 0.5 hours; read-out: Free Cl (converted)
Protocol: Rats (n=3 per compound) were administered by a single infusion. Intravenous doses were infused over 0.5 hours via an indwelling femoral vein cannula. […] (˜0.3 mL) samples were collected from each rat at designated time points up to 24 hours. Blood samples were centrifuged within 5 min of collection at 12000 g for 5 min to obtain plasma. The plasma samples were stored at −80° C. until analyzed. Data were analyzed using WinNonlin. The doses of all compounds tested were 20 mg/kg.

EC1010 (CMY-6) [15] = test: Tigemonam potentiation (MPC@4), EC1010; type: cell-based; details: tigemonam alone
[16] = test system: strains overexpressing class A (ESBL) and class C beta-lactamases; test: Tigemonam MIC of test strains; type: cell-based; details: across the test strains

Sequence of OXA-48 (Q6XEC0 23-265, looked up, species assumed): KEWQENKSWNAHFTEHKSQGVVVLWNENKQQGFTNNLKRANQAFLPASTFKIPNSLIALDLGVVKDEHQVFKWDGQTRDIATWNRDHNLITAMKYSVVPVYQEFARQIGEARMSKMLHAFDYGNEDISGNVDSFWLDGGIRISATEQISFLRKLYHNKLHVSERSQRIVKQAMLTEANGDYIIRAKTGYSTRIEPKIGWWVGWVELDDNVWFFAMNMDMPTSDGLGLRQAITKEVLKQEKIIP

## O=CN[C@H]1Cc2cccc(C(=O)O)c2OB1O [F, reference compound]
KP1009 (CTX-M-15) [1]
  TIG MPC4 CTX-M-15 KP1009: Y (MIC of 1 μg/mL to 10 μg/mL)
ec308 (SHV-5) [2]
  AZT MPC4 SHV-5 ec308: Y (MIC of 1 μg/mL to 10 μg/mL)
KP1010 (SHV-12) [3]
  AZT MPC4 SHV-12 KP1010: Y (key: X: MIC of less than 1 ng/mL; Y: MIC of 1 μg/mL to 10 μg/mL; Z: MIC of greater than 10 μg/mL)
ECL1002 [4]
  AZT MPC4 ECL1002: Y (MIC of 1 μg/mL to 10 μg/mL)
KP1004 (KPC-2)
  BPM MPC1 KP1004 KPC-2: X (MIC of less than 1 μg/mL)
ec302 (TEM-10) [5]
  TIG MPC4 TEM-10 ec302: Z (key: X: MIC of less than 1 ng/mL; Y: MIC of 1 μg/mL to 10 μg/mL; Z: MIC of greater than 10 μg/mL)
ec308 (SHV-5) [6]
  TIG MPC4 SHV-5 ec308: Y (key: X: MIC of less than 1 ng/mL; Y: MIC of 1 μg/mL to 10 μg/mL; Z: MIC of greater than 10 μg/mL)
KP1005 (CTX-M-14) [7]
  AZT MPC4 CTX-M-14 KP1005: Y (MIC of 1 μg/mL to 10 μg/mL)
ec302 (TEM-10) [8]
  AZT MPC4 TEM-10 ec302: Z (MIC of greater than 10 μg/mL)
KP1009 (CTX-M-15) [9]
  AZT MPC4 CTX-M-15 KP1009: Y (key: X: MIC of less than 1 ng/mL; Y: MIC of 1 μg/mL to 10 μg/mL; Z: MIC of greater than 10 μg/mL)
KP1005 (CTX-M-14) [10]
  TIG MPC4 CTX-M-14 KP1005: Y (MIC of 1 μg/mL to 10 μg/mL)
EC1010 (CMY-6) [11]
  AZT MPC4 CMY-6 EC1010: Y (key: X: MIC of less than 1 ng/mL; Y: MIC of 1 μg/mL to 10 μg/mL; Z: MIC of greater than 10 μg/mL)
KP1086 (OXA-48)
  BPM MPC1 OXA-48 KP1086: Y (MIC of 1 μg/mL to 10 μg/mL)
PAM1032/KPC-2
  PAM1032/KPC-2 Biapenem MPC64: 5
KP1010 (SHV-12) [12]
  TIG MPC4 SHV-12 KP1010: Y (key: X: MIC of less than 1 ng/mL; Y: MIC of 1 μg/mL to 10 μg/mL; Z: MIC of greater than 10 μg/mL)
OXA-48
  Ki: < 1 nM
ECL1002 [13]
  TIG MPC4 ECL1002: X (MIC of less than 1 μg/mL)
PAM1154/KPC-2
  PAM1154/KPC-2 Biapenem MPC64: 1.25

## O=C(Cc1cccs1)N[C@H]1Cc2cccc(C(=O)O)c2OB1O [I, reference compound]
KP1009 (CTX-M-15) [1]
  TIG MPC4 CTX-M-15 KP1009: Y (MIC of 1 μg/mL to 10 μg/mL)
ec308 (SHV-5) [2]
  AZT MPC4 SHV-5 ec308: X (MIC of less than 1 ng/mL)
[14]
  clearance: 136 mL/min/kg
KP1010 (SHV-12) [3]
  AZT MPC4 SHV-12 KP1010: X (key: X: MIC of less than 1 ng/mL; Y: MIC of 1 μg/mL to 10 μg/mL; Z: MIC of greater than 10 μg/mL)
KP1004 (KPC-2)
  BPM MPC1 KP1004 KPC-2: X (MIC of less than 1 μg/mL)
ec302 (TEM-10) [5]
  TIG MPC4 TEM-10 ec302: Z (key: X: MIC of less than 1 ng/mL; Y: MIC of 1 μg/mL to 10 μg/mL; Z: MIC of greater than 10 μg/mL)
ec308 (SHV-5) [6]
  TIG MPC4 SHV-5 ec308: X (key: X: MIC of less than 1 μg/mL; Y: MIC of 1 μg/mL to 10 μg/mL; Z: MIC of greater than 10 μg/mL)
KP1009 (CTX-M-15) [9]
  AZT MPC4 CTX-M-15 KP1009: Y (key: X: MIC of less than 1 ng/mL; Y: MIC of 1 μg/mL to 10 μg/mL; Z: MIC of greater than 10 μg/mL)
KP1005 (CTX-M-14) [10]
  TIG MPC4 CTX-M-14 KP1005: Y (MIC of 1 μg/mL to 10 μg/mL)
EC1010 (CMY-6) [11]
  AZT MPC4 CMY-6 EC1010: Y (key: X: MIC of less than 1 ng/mL; Y: MIC of 1 μg/mL to 10 μg/mL; Z: MIC of greater than 10 μg/mL)
KP1086 (OXA-48)
  BPM MPC1 OXA-48 KP1086: Y (MIC of 1 μg/mL to 10 μg/mL)
PAM1032/KPC-2
  PAM1032/KPC-2 Biapenem MPC64: 80
KP1010 (SHV-12) [12]
  TIG MPC4 SHV-12 KP1010: X (key: X: MIC of less than 1 μg/mL; Y: MIC of 1 μg/mL to 10 μg/mL; Z: MIC of greater than 10 μg/mL)
ECL1002 [13]
  TIG MPC4 ECL1002: X (MIC of less than 1 μg/mL)

## CC1(C)[C@H](NC(=O)/C(=N\OCC(=O)O)c2csc(N)n2)C(=O)N1OS(=O)(=O)O [Tigemonam, reference compound]
KP1009 (CTX-M-15) [1]; tigemonam alone
  Tigemonam MIC KP1009: Z (MIC of greater than 10 μg/mL)
EC1010 (CMY-6) [15]
  Tigemonam MIC EC1010: Z (MIC of greater than 10 μg/mL)
[16]
  Tigemonam MICs of test strains: ≥ 16 µg/mL
ec302 (TEM-10) [5]; tigemonam alone
  Tigemonam MIC ec302: Z (MIC of greater than 10 μg/mL)
ec308 (SHV-5) [6]; tigemonam alone
  Tigemonam MIC ec308: Z (MIC of greater than 10 μg/mL)
KP1005 (CTX-M-14) [10]; tigemonam alone
  Tigemonam MIC KP1005: Z (MIC of greater than 10 μg/mL)
KP1010 (SHV-12) [12]; tigemonam alone
  Tigemonam MIC KP1010: Z (MIC of greater than 10 μg/mL)
ECL1002 [13]; tigemonam alone
  Tigemonam MIC ECL1002: Z (MIC of greater than 10 μg/mL)
